74 substances from patent publication US20250213707A1, “COMPOUND FOR INCREASING EFFICACY OF ONCOLYTIC VIRUSES” (ABLEVIA BIOTECH GMBH, priority 2022, published 2025) can be followed below.

For the first assay, the system named is IgG from human donors (anti-AAV antibodies). In words: Screen for anti-AAV antibodies in human sera, 2452 linear 15-amino-acid AAV peptides on microarrays (Table 1). It is filed as binding. The arrangement: key to group II: X: the deduplicated aggregate of the respective top 25 peptide hits for each donor was compiled and designated as group II; key to group III: X: the deduplicated aggregate of the respective top 50 peptide hits for each donor was compiled and designated as group III. The following applies: membership in deduplicated aggregate of top 25 peptide hits for each donor; human donor IgG binding to linear 15-amino-acid AAV peptides on microarray, fluorescence. The procedure, abridged:
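Protein G-purified IgG from human donor blood incubated with microarrays of 2452 linear 15-mer peptides from 16 AAVs; binding read by fluorescence. Background-subtracted signals ranked per donor, with top 10, 25, 50 and 250 hits pooled and deduplicated into groups I-IV.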
In the case of ADPPTTFNQAKLAS [SEQ ID NO: 2009], the “group II” value was “X”.

As to ADPPTTFNQSKLNS [SEQ ID NO: 2024], the “group II” value is reported as “X”.

As to AGDNVDYSSVMLTS [SEQ ID NO: 2010], the “group II” value is “X”.

With ANPGIAMATHKDDE [SEQ ID NO: 2060], the “group II” value is “X”.

Still in this assay, the particulars now being: membership in deduplicated aggregate of top 50 peptide hits for each donor; human donor IgG binding to linear 15-amino-acid AAV peptides on microarray, fluorescence.
Consider ADPPTTFNQAKLAS [SEQ ID NO: 2009], for which the “group III” value was “X”.

As to ADPPTTFNQSKLNS [SEQ ID NO: 2024], the “group III” value is “X”.

Regarding AGDNVDYSSVMLTS [SEQ ID NO: 2010], the “group III” value was “X”.

With ANPGIAMATHKDDE [SEQ ID NO: 2060], the “group III” value was “X”.

For the next assay, the system named is polyclonal antibody ab6982. Put plainly: Epitope mapping of polyclonal antibody ab6982 against cyclic peptides of Ad5 fiber and hexon (peptide array). It is filed as binding, rabbits. The note with it: cyclic peptides of fiber protein (clusters 1-7). The source says:
Polyclonal antibody ab6982 (Abcam) was generated by immunizing rabbits with purified AdV. It reacts with all capsid proteins of Ad5 including hexon, fiber and penton. It was shown that the antibody neutralizes Ad5 infection in a bioassay at 1000 adenovirus 5 particles/ml, a 50% inactivation of the adenovirus can be achieved at a 1/25,000 dilution of the antibody. In order to identify epitopic regions that could contain peptides for ab6982 paratope binding, the antibody was mapped against the sequences of fiber (NCBI Reference Sequence: AP 000226.1) and hexon protein (GenBank: BAG48782.1). […] The binding signal of this antibody to the array yielded several peptides that were aligned and clustered against the sequence of the protein. The peptide clusters were named cluster1-7 (fiber protein) and clusters8-16 (hexon protein) according to their ranked order of cyclic peptide hits (i.e. cluster contains the strongest binders, cluster2 the second strongest etc.). Below are the aligments of the corresponding peptides that bind to polyclonal antibody ab6982.
Turning to ADPPTTFNQAKLAS [SEQ ID NO: 2009], the “antibody binding signal ranking from the microarray experiment” value (shortened to “antibody binding signal ranking”) came out at 060.

With ADPPTTFNQSKLNS [SEQ ID NO: 2024], the “antibody binding signal ranking” value was 032.

With AGDNVDYSSVMLTS [SEQ ID NO: 2010], the “antibody binding signal ranking” value amounted to 065.

For the substance ANPGIAMATHKDDE [SEQ ID NO: 2060], the “antibody binding signal ranking” value came out at 100.

The assay is the same for the next values; noted with them: cyclic peptides of hexon protein (clusters 8-16).
Consider 242 (DDNEDEVDEQ) [compound 242], for which the “antibody binding signal ranking” value stood at 057.

As for 243 (EDDDNED) [compound 243], the “antibody binding signal ranking” value is recorded as 063.

Take 244 (NLEEEDD) [compound 244]: the “antibody binding signal ranking” value came out at 065.

Turning to 245 (DDNEDEV) [compound 245], the “antibody binding signal ranking” value is on record as 078.

With 246 (DDDNEDEVDE) [compound 246], the “antibody binding signal ranking” value is on record as 087.

Turning to 247 (DDDNEDE) [compound 247], the “antibody binding signal ranking” value was found to be 096.

As for 248 (EEEDDDNEDE) [compound 248], the “antibody binding signal ranking” value was found to be 097.

On to 249 (EEDDDNE) [compound 249], for which the “antibody binding signal ranking” value came out at 108.

For the substance 250 (EDDDNEDEVD) [compound 250], the “antibody binding signal ranking” value is 121.

Take 251 (EDEVDEQ) [compound 251]: the “antibody binding signal ranking” value was 126.

Take 252 (EEDDDNEDEVDEQ) [compound 252]: the “antibody binding signal ranking” value amounted to 148.

253 (EEDDDNEDEV) [compound 253]: the “antibody binding signal ranking” value was found to be 185.

Take 254 (EEEDDDNEDEVDE) [compound 254]: the “antibody binding signal ranking” value is on record as 188.

As to 255 (EVDEQAEQQK) [compound 255], the “antibody binding signal ranking” value is 030.

With 256 (DNEDEVDEQAEQQ) [compound 256], the “antibody binding signal ranking” value came out at 031.

In the case of 257 (VDEQAEQQKT) [compound 257], the “antibody binding signal ranking” value was 036.

Turning to 258 (EVDEQAEQQKTHV) [compound 258], the “antibody binding signal ranking” value stood at 038.

With 259 (VDEQAEQQKTHVF) [compound 259], the “antibody binding signal ranking” value turned out to be 041.

In the case of 260 (ALEINLE) [compound 260], the “antibody binding signal ranking” value was found to be 033.

Take 261 (WDEAATALEINLE) [compound 261]: the “antibody binding signal ranking” value was 042.

Take 262 (AATALEINLE) [compound 262]: the “antibody binding signal ranking” value came out at 043.

With 263 (EWDEAATALEINL) [compound 263], the “antibody binding signal ranking” value is 112.

264 (EAATALEINL) [compound 264]: the “antibody binding signal ranking” value was 124.

265 (LYSEDVDIET) [compound 265]: the “antibody binding signal ranking” value is reported as 039.

For 266 (LYSEDVDIETPDT) [compound 266], the “antibody binding signal ranking” value was 040.

For the substance 267 (KVVLYSEDVDIET) [compound 267], the “antibody binding signal ranking” value is given as 044.

Consider 268 (IETPDTH) [compound 268], for which the “antibody binding signal ranking” value is given as 045.

As to 269 (VDIETPDTHI) [compound 269], the “antibody binding signal ranking” value came to 046.

For the substance 270 (VLYSEDVDIE) [compound 270], the “antibody binding signal ranking” value is listed as 047.

As for 271 (DVDIETPDTHISY) [compound 271], the “antibody binding signal ranking” value worked out at 048.

With 272 (VVLYSEDVDIETP) [compound 272], the “antibody binding signal ranking” value is on record as 049.

Take 273 (SEDVDIETPDTHI) [compound 273]: the “antibody binding signal ranking” value is reported as 050.

For 274 (ETPDTHI) [compound 274], the “antibody binding signal ranking” value turned out to be 051.

On to 275 (VLYSEDVDIETPD) [compound 275], for which the “antibody binding signal ranking” value stood at 052.

Regarding 276 (DVDIETPDTH) [compound 276], the “antibody binding signal ranking” value was found to be 054.

As to 277 (DIETPDTHIS) [compound 277], the “antibody binding signal ranking” value stood at 055.

On to 278 (EDVDIETPDTHIS) [compound 278], for which the “antibody binding signal ranking” value is 056.

Take 279 (IETPDTHISY) [compound 279]: the “antibody binding signal ranking” value worked out at 058.

Turning to 280 (YSEDVDIETPDTH) [compound 280], the “antibody binding signal ranking” value is reported as 059.

With 281 (VDIETPDTHISYM) [compound 281], the “antibody binding signal ranking” value is 060.

Consider 282 (PKVVLYSEDVDIE) [compound 282], for which the “antibody binding signal ranking” value came to 061.

283 (DIETPDT) [compound 283]: the “antibody binding signal ranking” value is given as 062.

On to 284 (DIETPDTHISYMP) [compound 284], for which the “antibody binding signal ranking” value is 064.

Consider 285 (EDVDIETPDT) [compound 285], for which the “antibody binding signal ranking” value was 070.

Take 286 (ETPDTHISYM) [compound 286]: the “antibody binding signal ranking” value amounted to 071.

As to 287 (IETPDTHISYMP) [compound 287], the “antibody binding signal ranking” value was found to be 159.

Regarding 288 (DRMYSFFRNF) [compound 288], the “antibody binding signal ranking” value was determined as 072.

As to 289 (DRMYSFF) [compound 289], the “antibody binding signal ranking” value was determined as 086.

With 290 (YSFFRNF) [compound 290], the “antibody binding signal ranking” value was found to be 104.

For 291 (IPESYKDRMYSFF) [compound 291], the “antibody binding signal ranking” value is recorded as 107.

On to 292 (SYKDRMYSFF) [compound 292], for which the “antibody binding signal ranking” value worked out at 120.

Turning to 293 (ESYKDRMYSF) [compound 293], the “antibody binding signal ranking” value is reported as 127.

Consider 294 (KDRMYSF) [compound 294], for which the “antibody binding signal ranking” value is 143.

295 (YIPESYKDRMYSF) [compound 295]: the “antibody binding signal ranking” value turned out to be 152.

As to 296 (PESYKDRMYSFFR) [compound 296], the “antibody binding signal ranking” value worked out at 153.

In the case of 297 (YKDRMYSFFR) [compound 297], the “antibody binding signal ranking” value was 160.

Regarding 298 (TRYFSMW) [compound 298], the “antibody binding signal ranking” value amounted to 073.

Turning to 299 (GDRTRYF) [compound 299], the “antibody binding signal ranking” value is recorded as 080.

For the substance 300 (DSIGDRTRYF) [compound 300], the “antibody binding signal ranking” value turned out to be 095.

Take 301 (DSIGDRTRYFSMW) [compound 301]: the “antibody binding signal ranking” value is reported as 100.

Take 302 (GDRTRYFSMW) [compound 302]: the “antibody binding signal ranking” value came out at 101.

In the case of 303 (DRMYSFFRNF) [compound 303], the “antibody binding signal ranking” value turned out to be 072.

Regarding 304 (SYKDRMYSFFRNF) [compound 304], the “antibody binding signal ranking” value turned out to be 099.

In the case of 305 (NYNIGYQGFY) [compound 305], the “antibody binding signal ranking” value is 106.

Take 306 (ANYNIGYQGF) [compound 306]: the “antibody binding signal ranking” value was determined as 122.

Consider 307 (MLANYNIGYQGFY) [compound 307], for which the “antibody binding signal ranking” value turned out to be 123.

Regarding 308 (IGYQGFY) [compound 308], the “antibody binding signal ranking” value is reported as 136.

On to 309 (FLVQMLANYNIGY) [compound 309], for which the “antibody binding signal ranking” value worked out at 184.

With 310 (NIGYQGF) [compound 310], the “antibody binding signal ranking” value amounted to 187.

For 311 (QMLANYNIGYQGF) [compound 311], the “antibody binding signal ranking” value is 190.
